According to US8685977B2, “Chemical compounds” (Pfizer Limited, priority 2010, dated 2014):

biological target: T1, Nav1.7 (or SCN9A) channel (Homo sapiens, UniProt Q15858); experiment: Nav1.7 PatchXpress 7000 automated electrophysiology assay (HEK cells stably expressing hSCN9A); type: cell-based; conditions: voltage-clamped at V1/2 of inactivation, read-out: Nav1.7 EIC50
T1 construct: expressed in transfected cells
In short: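 Automated whole-cell clamp (PatchXpress) of HEK cells stably expressing hSCN9A, at 22-24 °C, in extracellular buffer at pH 7.4. Cells were held at the measured V1/2 of inactivation, then stepped to 0 mV for 20 ms. Single-concentration % inhibition gave EIC50 = concentration × (100 − %inhibition)/%inhibition, excluding <20% or >80%.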

T1 sequence (Q15858 whole entry): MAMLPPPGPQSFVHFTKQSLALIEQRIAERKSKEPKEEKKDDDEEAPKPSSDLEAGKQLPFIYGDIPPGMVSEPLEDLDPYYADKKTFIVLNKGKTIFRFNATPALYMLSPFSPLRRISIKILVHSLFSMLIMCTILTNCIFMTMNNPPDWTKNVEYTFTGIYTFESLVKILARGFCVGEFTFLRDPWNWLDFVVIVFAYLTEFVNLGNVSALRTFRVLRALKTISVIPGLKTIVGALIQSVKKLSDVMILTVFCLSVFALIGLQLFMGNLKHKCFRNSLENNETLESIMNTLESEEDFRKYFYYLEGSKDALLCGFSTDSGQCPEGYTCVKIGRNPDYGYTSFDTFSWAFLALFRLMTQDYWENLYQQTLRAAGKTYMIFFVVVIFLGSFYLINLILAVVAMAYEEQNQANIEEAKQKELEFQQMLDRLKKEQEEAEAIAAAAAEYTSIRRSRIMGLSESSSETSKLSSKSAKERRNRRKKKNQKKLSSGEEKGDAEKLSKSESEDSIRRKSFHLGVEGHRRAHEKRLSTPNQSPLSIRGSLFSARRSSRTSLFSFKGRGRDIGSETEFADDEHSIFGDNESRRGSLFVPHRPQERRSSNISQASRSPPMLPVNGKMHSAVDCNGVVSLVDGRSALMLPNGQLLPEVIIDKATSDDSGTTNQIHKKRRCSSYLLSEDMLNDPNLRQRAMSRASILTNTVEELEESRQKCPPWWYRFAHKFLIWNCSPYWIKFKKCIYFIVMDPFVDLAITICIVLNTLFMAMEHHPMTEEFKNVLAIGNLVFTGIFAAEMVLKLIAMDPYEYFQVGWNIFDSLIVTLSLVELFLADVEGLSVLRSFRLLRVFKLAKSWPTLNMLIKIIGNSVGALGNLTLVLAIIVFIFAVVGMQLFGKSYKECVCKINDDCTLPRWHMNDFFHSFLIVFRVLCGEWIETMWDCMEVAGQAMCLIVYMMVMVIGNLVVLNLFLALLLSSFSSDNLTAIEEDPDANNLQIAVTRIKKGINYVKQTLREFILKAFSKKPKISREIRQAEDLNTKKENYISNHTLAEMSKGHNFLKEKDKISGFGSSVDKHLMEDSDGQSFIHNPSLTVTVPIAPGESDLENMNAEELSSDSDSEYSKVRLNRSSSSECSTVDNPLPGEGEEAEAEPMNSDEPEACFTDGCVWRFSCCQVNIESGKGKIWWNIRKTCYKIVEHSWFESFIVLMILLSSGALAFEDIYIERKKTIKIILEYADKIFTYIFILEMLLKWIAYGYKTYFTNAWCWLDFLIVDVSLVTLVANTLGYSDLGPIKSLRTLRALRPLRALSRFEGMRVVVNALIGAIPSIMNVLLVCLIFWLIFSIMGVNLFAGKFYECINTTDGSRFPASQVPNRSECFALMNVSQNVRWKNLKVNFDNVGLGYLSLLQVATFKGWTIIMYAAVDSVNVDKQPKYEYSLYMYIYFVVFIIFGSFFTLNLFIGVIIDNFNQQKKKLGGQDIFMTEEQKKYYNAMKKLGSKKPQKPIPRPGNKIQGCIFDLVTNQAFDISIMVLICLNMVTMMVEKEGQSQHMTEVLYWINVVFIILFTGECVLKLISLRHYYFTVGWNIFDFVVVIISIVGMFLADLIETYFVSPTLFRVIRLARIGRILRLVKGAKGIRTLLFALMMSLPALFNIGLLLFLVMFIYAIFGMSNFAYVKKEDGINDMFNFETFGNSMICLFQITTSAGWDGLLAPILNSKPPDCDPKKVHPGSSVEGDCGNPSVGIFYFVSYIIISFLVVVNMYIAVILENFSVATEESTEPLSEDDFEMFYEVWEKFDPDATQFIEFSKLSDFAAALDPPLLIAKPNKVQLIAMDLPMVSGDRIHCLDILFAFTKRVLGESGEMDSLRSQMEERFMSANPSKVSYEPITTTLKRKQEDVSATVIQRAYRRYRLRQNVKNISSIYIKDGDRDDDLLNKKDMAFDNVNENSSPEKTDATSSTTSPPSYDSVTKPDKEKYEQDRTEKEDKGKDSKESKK

Going from CS(=O)(=O)NC(=O)c1ccc(Oc2cccc(C(F)(F)F)c2)c(Cl)c1 [Example 266, 3-chloro-N-(methylsulfonyl)-4-[3-(trifluoromethyl)phenoxy]benzamide] to CS(=O)(=O)NC(=O)c1ccc(Oc2ccccc2C(F)(F)F)c(Cl)c1 [Example 278, 3-chloro-N-(methylsulfonyl)-4-[2-(trifluoromethyl)phenoxy]benzamide], the IC50 rises from 0.27 µM to 6.6 µM (24-fold).

First: CS(=O)(=O)NC(=O)c1ccc(Oc2ccccc2-c2ccccc2)cc1 [Example 268, 4-(biphenyl-2-yloxy)-N-(methylsulfonyl)benzamide]
Second: CS(=O)(=O)NC(=O)c1ccc(Oc2ccc(-c3ccccc3)cc2)c(C#N)c1 [Example 280, 4-(biphenyl-4-yloxy)-3-cyano-N-(methylsulfonyl)benzamide]
The IC50 of the first is 12-fold higher: 5.3 µM for the first, 0.43 µM for the second. The second is the more potent here.

Compared with CS(=O)(=O)NC(=O)c1ccc(Oc2ccc3ccccc3c2)c(C#N)c1 [Example 269, 3-cyano-N-(methylsulfonyl)-4-(2-naphthyloxy)benzamide], CS(=O)(=O)NC(=O)c1ccc(Oc2cccc3ccccc23)c(C#N)c1 [Example 283, 3-cyano-N-(methylsulfonyl)-4-(1-naphthyloxy)benzamide] is 5.1-fold higher in IC50: 1.7 µM for the first, 8.6 µM for the second. The first is the more potent here.

CS(=O)(=O)NC(=O)c1ccc(Oc2ccc(C#N)cc2)c(Cl)c1 [Example 270, 3-chloro-4-(4-cyanophenoxy)-N-(methylsulfonyl)benzamide] and CS(=O)(=O)NC(=O)c1cc(Cl)c(Oc2ccc(C#N)cc2)cc1F [Example 286, 5-chloro-4-(4-cyanophenoxy)-2-fluoro-N-(methylsulfonyl)benzamide] are within 1.5-fold of each other in IC50: 3.7 µM for the first, 3.4 µM for the second.

Compared with CS(=O)(=O)NC(=O)c1ccc(Oc2cccc(-c3ccccc3)c2)c(C#N)c1 [Example 272, 4-(biphenyl-3-yloxy)-3-cyano-N-(methylsulfonyl)benzamide], CS(=O)(=O)NC(=O)c1ccc(Oc2cccc(F)c2)c(C#N)c1 [Example 284, 3-cyano-4-(3-fluorophenoxy)-N-(methylsulfonyl)benzamide] is 12-fold higher in IC50: 0.71 µM for the first, 8.7 µM for the second. The first is the more potent here.

COc1cccc(Oc2ccc(C(=O)NS(C)(=O)=O)cc2C#N)c1 [Example 277, 3-cyano-4-(3-methoxyphenoxy)-N-(methylsulfonyl)benzamide] and CCOc1cccc(Oc2ccc(C(=O)NS(C)(=O)=O)cc2C#N)c1 [Example 281, 3-cyano-4-(3-ethoxyphenoxy)-N-(methylsulfonyl)benzamide] are within 1.5-fold of each other in IC50: 5.6 µM for the first, 4.3 µM for the second.

Going from CS(=O)(=O)NC(=O)c1ccc(Oc2ccccc2F)c(Cl)c1 [Example 282, 3-chloro-4-(2-fluorophenoxy)-N-(methylsulfonyl)benzamide] to Cc1ccccc1Oc1cc(F)c(C(=O)NS(C)(=O)=O)cc1Cl [Example 297, 5-chloro-2-fluoro-4-(2-methylphenoxy)-N-(methylsulfonyl)benzamide], the IC50 rises from 1.2 µM to 2.3 µM (1.9-fold).

Compared with CS(=O)(=O)NC(=O)c1cc(Cl)c(Oc2ccc3ccccc3c2)cc1F [Example 285, 5-chloro-2-fluoro-N-(methylsulfonyl)-4-(2-naphthyloxy)benzamide], CS(=O)(=O)NC(=O)c1cc(Cl)c(Oc2cccc3ccccc23)cc1F [Example 287, 5-chloro-2-fluoro-N-(methylsulfonyl)-4-(1-naphthyloxy)benzamide] is 37-fold higher in IC50: 0.057 µM for the first, 2.1 µM for the second. The first is the more potent here.

Compared with CCOc1ccccc1Oc1cc(F)c(C(=O)NS(C)(=O)=O)cc1Cl [Example 288, 5-chloro-4-(2-ethoxyphenoxy)-2-fluoro-N-(methylsulfonyl)benzamide], CS(=O)(=O)NC(=O)c1cc(Cl)c(Oc2ccccc2C#N)cc1F [Example 293, 5-chloro-4-(2-cyanophenoxy)-2-fluoro-N-(methylsulfonyl)benzamide] is higher in IC50: 2 µM for the first, over 3 µM for the second.

Compared with COc1cccc(Oc2cc(F)c(C(=O)NS(C)(=O)=O)cc2Cl)c1 [Example 289, 5-chloro-2-fluoro-4-(3-methoxyphenoxy)-N-(methylsulfonyl)benzamide], CCOc1cccc(Oc2cc(F)c(C(=O)NS(C)(=O)=O)cc2Cl)c1 [Example 298, 5-chloro-4-(3-ethoxyphenoxy)-2-fluoro-N-(methylsulfonyl)benzamide] is 6-fold lower in IC50: 1.2 µM for the first, 0.2 µM for the second. The second is the more potent here.

Compared with Cc1ccc(Oc2cc(F)c(C(=O)NS(C)(=O)=O)cc2Cl)cc1 [Example 291, 5-chloro-2-fluoro-4-(4-methylphenoxy)-N-(methylsulfonyl)benzamide], CS(=O)(=O)NC(=O)c1cc(Cl)c(Oc2ccc(Cl)cc2)cc1F [Example 295, 5-chloro-4-(4-chlorophenoxy)-2-fluoro-N-(methylsulfonyl)benzamide] is 4.3-fold lower in IC50: 0.42 µM for the first, 0.097 µM for the second.

First: CS(=O)(=O)NC(=O)c1cc(Cl)c(Oc2cccc(Cl)c2)cc1F [Example 292, 5-chloro-4-(3-chlorophenoxy)-2-fluoro-N-(methylsulfonyl)benzamide]
Second: CS(=O)(=O)NC(=O)c1cc(Cl)c(Oc2ccc(F)cc2)cc1F [Example 296, 5-chloro-2-fluoro-4-(4-fluorophenoxy)-N-(methylsulfonyl)benzamide]
The IC50 of the first is 1.6-fold higher: 0.62 µM for the first, 0.39 µM for the second.

Compared with CCOc1ccc(Oc2cc(F)c(C(=O)NS(C)(=O)=O)cc2Cl)cc1 [Example 294, 5-chloro-4-(4-ethoxyphenoxy)-2-fluoro-N-(methylsulfonyl)benzamide], CS(=O)(=O)NC(=O)c1ccc(Oc2ccc(Cl)c(C(F)(F)F)c2)c(Cl)c1F [Example 320, 3-chloro-4-(4-chloro-3-(trifluoromethyl)phenoxy)-2-fluoro-N-(methylsulfonyl)benzamide] is 11-fold higher in IC50: 0.16 µM for the first, 1.8 µM for the second. The first is the more potent here.

Cn1nccc1-c1cc(Cl)ccc1Oc1ccc(C(=O)NS(C)(=O)=O)cc1C#N [Example 303, 4-[4-chloro-2-(1-methyl-1H-pyrazol-5-yl)phenoxy]-3-cyano-N-(methylsulfonyl)benzamide] and COc1cc(C(=O)NS(C)(=O)=O)ccc1Cc1ccc(Cl)c(Cl)c1 [Example 322, 4-(3,4-dichlorobenzyl)-3-methoxy-N-(methylsulfonyl)benzamide] cannot be ordered by IC50: over 3 µM for the first, over 3 µM for the second.

Compared with Cc1ccc(Oc2ccc(C(=O)NS(C)(=O)=O)cc2)cc1 [Example 304, 4-(4-methylphenoxy)-N-(methylsulfonyl)benzamide], CCS(=O)(=O)NC(=O)c1ccc(Oc2ccc(C)cc2)cc1 [Example 308, N-(ethylsulfonyl)-4-(4-methylphenoxy)benzamide] is higher in IC50: 8.7 µM for the first, over 10 µM for the second. The first is the more potent here.

First: CCS(=O)(=O)NC(=O)c1ccc(Oc2ccc(F)cc2)cc1 [Example 305, N-(ethylsulfonyl)-4-(4-fluorophenoxy)benzamide]
Second: CS(=O)(=O)NC(=O)c1ccc(Oc2ccc(F)cc2)cc1 [Example 309, 4-(4-fluorophenoxy)-N-(methylsulfonyl)benzamide]
The IC50 of the first is 2.8-fold lower: 6.4 µM for the first, 18 µM for the second.

Compared with CCS(=O)(=O)NC(=O)c1ccc(Oc2cccc(F)c2)cc1 [Example 306, N-(ethylsulfonyl)-4-(3-fluorophenoxy)benzamide], CCS(=O)(=O)NC(=O)c1ccc(Oc2ccccc2)cc1 [Example 307, N-(ethylsulfonyl)-4-phenoxybenzamide] is 2.6-fold lower in IC50: 25 µM for the first, 9.7 µM for the second. The second is the more potent here.

CS(=O)(=O)NC(=O)c1ccc(Oc2ccc(C#N)c(C(F)(F)F)c2)cc1 [Example 310, 4-[4-cyano-3-(trifluoromethyl)phenoxy]-N-(methylsulfonyl)benzamide] and Cn1nc(C(F)(F)F)cc1-c1ccc(Oc2ccc(C(=O)NS(C)(=O)=O)cc2)cc1 [Example 312, N-(methylsulfonyl)-4-{4-[1-methyl-3-(trifluoromethyl)-1H-pyrazol-5-yl]phenoxy}benzamide] are the same in IC50: 3.3 µM for the first, 3.3 µM for the second.

CS(=O)(=O)NC(=O)c1ccc(Oc2ccc(-n3ccnc3)cc2)cc1 [Example 311, 4-[4-(1H-imidazol-1-yl)phenoxy]-N-(methylsulfonyl)benzamide] and COc1ccccc1Sc1ccc(C(=O)NS(C)(=O)=O)cc1 [Example 324, 4-(2-methoxyphenylthio)-N-(methylsulfonyl)benzamide] cannot be ordered by IC50: over 3 µM for the first, over 3 µM for the second.

Going from CS(=O)(=O)NC(=O)c1cc(Cl)c(Oc2ccc(C(F)(F)F)cc2-c2ccnnc2)cc1F [Example 313, 5-chloro-2-fluoro-N-(methylsulfonyl)-4-[2-pyridazin-4-yl-4-(trifluoromethyl)phenoxy]benzamide] to COc1ccc(OC(F)(F)F)cc1Oc1cc(F)c(C(=O)NS(C)(=O)=O)cc1F [Example 314, 2,5-difluoro-4-[2-methoxy-5-(trifluoromethoxy)phenoxy]-N-(methylsulfonyl)benzamide], the IC50 falls from 9.9 µM to 1.1 µM (9-fold). The second is the more potent here.

Going from CS(=O)(=O)NC(=O)c1ccc(Cc2ccc(Cl)c(Cl)c2)cc1 [Example 315, 4-(3,4-Dichlorobenzyl)-N-(methylsulfonyl)benzamide] to CS(=O)(=O)NC(=O)c1ccc(Sc2ccc(Cl)c(Cl)c2)cc1 [Example 317, 4-[(3,4-Dichlorophenyl)sulfanyl]-N-(methylsulfonyl)benzamide], the IC50 rises from 1.5 µM to 3.5 µM (2.3-fold). The first is the more potent here.

Going from CS(=O)(=O)NC(=O)c1ccc(Cc2cccc(OC(F)(F)F)c2)cc1 [Example 316, N-(Methylsulfonyl-1)-4-[3-(trifluoromethoxy)benzyl]benzamide] to CS(=O)(=O)NC(=O)c1ccc(Sc2cccc(OC(F)(F)F)c2)cc1 [Example 318, N-(Methylsulfonyl)-4-{[3-(trifluoromethoxy)phenyl]sulfanyl}benzamide], the IC50 rises from 1.6 µM to 5.6 µM (3.5-fold).

First: COc1cc(Cl)ccc1Cc1cc(F)c(C(=O)NS(C)(=O)=O)cc1F [Example 319, 4-(4-Chloro-2-methoxybenzyl)-2,5-difluoro-N-(methylsulfonyl)benzamide]
Second: CS(=O)(=O)NC(=O)c1ccc(Sc2ccccc2Cl)cc1 [Example 323, 4-(2-chlorophenylthio)-N-(methylsulfonyl)benzamide]
The IC50 of the first is 14-fold lower: 2.5 µM for the first, 36 µM for the second. The first is the more potent here.

With CS(=O)(=O)NC(=O)c1ccc(Nc2cccc(C(F)(F)F)c2)cc1 [Example 321, N-(methylsulfonyl)-4-(3-(trifluoromethyl)phenylamino)benzamide] the IC50 was 0.32 µM.
